Data reported in PubChem BioAssay (NCI).
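Test compounds were applied to cells in 96-well plates for 48 hours at 5 doses. GI50 = concentration required for 50% inhibition of growth. TGI denotes the concentration required for complete inhibition of growth.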

Tests used:
Assay in all cases: growth of human tumour cells (NCI), 48 h
[1] = tested on: CAKI-1 renal
[2] = tested on: MCF7 breast
[3] = tested on: CCRF-CEM leukemia
[4] = tested on: RPMI-8226 leukemia
[5] = tested on: MOLT-4 leukemia
[6] = tested on: OVCAR-4 ovarian
[7] = tested on: BT-549 breast
[8] = tested on: OVCAR-8 ovarian
[9] = tested on: K-562 leukemia
[10] = tested on: NCI/ADR-RES ovarian
[11] = tested on: SF-268 CNS
[12] = tested on: A549 NSCLC
[13] = tested on: SN12C renal
[14] = tested on: IGROV1 ovarian
[15] = tested on: NCI-H460 lung
[16] = tested on: HL-60(TB) leukemia
[17] = tested on: SNB-19 CNS
[18] = tested on: SK-MEL-2 melanoma
[19] = tested on: EKVX NSCLC
[20] = tested on: NCI-H23 lung
[21] = tested on: UO-31 renal
[22] = tested on: DU-145 prostate
[23] = tested on: SNB-75 CNS
[24] = tested on: MDA-MB-435
[25] = tested on: COLO 205 colon
[26] = tested on: PC-3 prostate
[27] = tested on: OVCAR-5 ovarian
[28] = tested on: HOP-62 NSCLC
[29] = tested on: UACC-62 melanoma
[30] = tested on: HOP-92 NSCLC
[31] = tested on: SW-620 colon
[32] = tested on: SF-539 CNS
[33] = tested on: SK-MEL-28 melanoma
[34] = tested on: NCI-H522 lung
[35] = tested on: NCI-H226 lung
[36] = tested on: SK-MEL-5 melanoma
[37] = tested on: MDA-MB-231 breast
[38] = tested on: HS 578T breast
[39] = tested on: HCT-116 colon
[40] = tested on: MALME-3M melanoma
[41] = tested on: TK-10 renal
[42] = tested on: A498 renal
[43] = tested on: M14 melanoma
[44] = tested on: HT29 colon
[45] = tested on: KM12 colon
[46] = tested on: 786-0 renal
[47] = tested on: ACHN renal
[48] = tested on: RXF 393 renal
[49] = tested on: SK-OV-3 ovarian
[50] = tested on: U251 CNS
[51] = tested on: UACC-257 melanoma
[52] = tested on: HCT-15 colon
[53] = tested on: HCC-2998 colon
[54] = tested on: SF-295 CNS
[55] = tested on: T-47D breast

C#Cc1nc(C(=O)NCCC(=O)Nc2ccc(NC(=O)c3ccc(/C=C/C(=O)c4nccn4C)cc3)cc2)cs1
GI50 [1]: 2410 nM | TGI [1]: 20100 nM | GI50 [2]: 1260 nM | TGI [2]: 4980 nM | GI50 [3]: 954 nM | TGI [3]: 2320 nM | GI50 [4]: 934 nM | TGI [4]: 2200 nM | GI50 [5]: 1290 nM | TGI [5]: 3530 nM | GI50 [6]: 24900 nM | TGI [6]: > 50000 nM | GI50 [7]: 1760 nM | TGI [7]: 11300 nM | GI50 [8]: 1750 nM | TGI [8]: > 50000 nM | GI50 [9]: 1200 nM | TGI [9]: > 50000 nM | GI50 [10]: 3270 nM | TGI [10]: > 50000 nM | GI50 [11]: 1720 nM | TGI [11]: 13300 nM | GI50 [12]: 2230 nM | TGI [12]: > 50000 nM | GI50 [13]: 1300 nM | TGI [13]: 4490 nM | GI50 [14]: 878 nM | TGI [14]: 1800 nM | GI50 [15]: 1570 nM | TGI [15]: 4600 nM | GI50 [16]: 857 nM | TGI [16]: 2530 nM | GI50 [17]: 1830 nM | TGI [17]: 7400 nM | GI50 [18]: 35800 nM | TGI [18]: > 50000 nM | GI50 [19]: 2790 nM | TGI [19]: > 50000 nM | GI50 [20]: 1220 nM | TGI [20]: 3410 nM | GI50 [21]: 763 nM | TGI [21]: 1490 nM | GI50 [22]: 2320 nM | TGI [22]: > 50000 nM | GI50 [23]: 1430 nM | TGI [23]: 9710 nM | GI50 [24]: 1710 nM | TGI [24]: 6790 nM | GI50 [25]: 4950 nM | TGI [25]: 47000 nM | GI50 [26]: 1380 nM | TGI [26]: 3880 nM | GI50 [27]: 1580 nM | TGI [27]: 4940 nM | GI50 [28]: 1150 nM | TGI [28]: 2830 nM | GI50 [29]: 3010 nM | TGI [29]: 10900 nM | GI50 [30]: 1070 nM | TGI [30]: 2780 nM | GI50 [31]: 1230 nM | TGI [31]: 2830 nM | GI50 [32]: 911 nM | TGI [32]: 1670 nM | GI50 [33]: 7000 nM | TGI [33]: 29900 nM | GI50 [34]: 1040 nM | TGI [34]: 2270 nM | GI50 [35]: 1350 nM | TGI [35]: 4020 nM | GI50 [36]: 3130 nM | TGI [36]: 11100 nM | GI50 [37]: 1130 nM | TGI [37]: 2600 nM | GI50 [38]: 4550 nM | TGI [38]: > 50000 nM | GI50 [39]: 1000 nM | TGI [39]: 2100 nM | GI50 [40]: 1400 nM | TGI [40]: 4640 nM | GI50 [41]: 8940 nM | TGI [41]: > 50000 nM | GI50 [42]: 7390 nM | TGI [42]: 19200 nM | GI50 [43]: 3430 nM | TGI [43]: 20800 nM | GI50 [44]: 1130 nM | TGI [44]: 2540 nM | GI50 [45]: 2880 nM | TGI [45]: 32500 nM | GI50 [46]: 939 nM | TGI [46]: 1760 nM | GI50 [47]: 899 nM | TGI [47]: 1660 nM | GI50 [48]: 1040 nM | TGI [48]: 2750 nM | GI50 [49]: 11500 nM | TGI [49]: > 50000 nM | GI50 [50]: 886 nM | TGI [50]: 2040 nM | GI50 [51]: 18700 nM | TGI [51]: > 50000 nM | GI50 [52]: 850 nM | TGI [52]: 1980 nM | GI50 [53]: 2140 nM | TGI [53]: 7950 nM | GI50 [54]: 2370 nM | TGI [54]: 8430 nM | GI50 [55]: 2220 nM | TGI [55]: > 50000 nM
